Experimental data: patent US5691338A, “1,2-dithiole-3 thiones for the treatment of reverse transcriptase-dependent viral infections” (priority 1995, dated 1997)
Entries after “also recorded” stand apart in the source; their conditions may differ. Read-outs that look alike come from different tables or passages of the source.

Columns and labels:
[1] = single 250 mg dose, adults, cited from earlier work
HIV-1 (HTLVIIIB) = assay: microbe, parasite or virus in culture; assay type: cell-based
Protocol: The effects for test compounds were assessed by means of both IFA and p24 release. In general, the following protocol was followed: H9 cells were infected with HIV-1 at 1000 50% infective doses of viruses/10^6 cells. Virus was allowed to adsorb for 1 h, after which unadsorbed virus was removed by centrifugation. The cells were resuspended and washed twice with PBS (without Ca^+2 or Mg^+2 salts) and centrifuged to collect the cell pellet (150×g×10 min). Cells were suspended in fresh medium and added at a final cell density of 500,000 cells/ml in a 96-well plate with media containing 0.1% DMSO and various concentrations of test compounds. The cells were re-fed freshly prepared media containing 0.1% DMSO±test compounds on day four (for preinduction experiments, cells were exposed to inducers on days -2, 0, and +4 days relative to infection). After seven days, cells were examined for cytoxicity by trypan blue exclusion, the degree of infection with HIV-1 by IFA, and the supernatants were assayed for p24 levels according to the manufacturer's directions. The IFA procedure can be summarized as follows: The cells were washed twice in PBS and were placed in 5 mm 12-well slides. After allowing the slides to dry and fixing the cells with acetone for 5 min, 10 μl of HIV-1 positive serum in 40 μl PBS was added to each well and allowed to incubate at 37° C. for 30 min. After incubation, the slides were washed twice with PBS and incubated at 37° C. for 30 min with 2.5 μl goat anti-human IgG-fluorescein isothiocyanate conjugate in 50 μl PBS containing 0.01% Evans Blue per well. The slides were then washed twice with PBS, dried, and mounted with 50% glycerol in PBS, and scored for the percentage of fluorescent cells by fluorescent microscopy.

[2] = system: quinone reductase (QR) in H9 cells; assay: Elevation of quinone reductase (QR) in H9 cells; assay type: cell-based, human; conditions: for fold induction at 30 µM / fold induction at 60 µM / fold induction at 120 µM: Homo sapiens, read-out: Quinone reductase, treated to control value
Protocol: (§1) Five ml of medium was added to T-25 flasks and DMSO containing tests compounds were added to a final concentration of 0.1%. Control medium contained 0.1% DMSO. After the drugs were added, 5×10^6 cells in 5 ml of medium was added to each T-25 flask. The cells were grown at 37° C. in a humidified incubator supplemented with 5% CO2 until harvested (N=3 flasks/group). At the indicated times, cells were isolated by centrifugation (500×g×10 min) and were washed three times by adding 10 ml of ice-cold DPBS, mixing, and centrifuging in a refrigerated centrifuge (500×g×10 min) to isolate the cell pellets. The cells were then lysed by the addition of 400 μl of ice-cold DPBS containing 0.5% Triton X-100 and vortexing. Supernatants were then isolated by centrifuging the lysates (5000×g×20 min). Samples were kept on ice or refrigerated until the reagents for QR or GSH spectrophotometric assays were added to the aliquoted microtiter plates. QR levels were determined by aliquoting 10 μl/well of supernatant in a 96-well plate and measuring the activity by the assay described by Prochaska and Santamaria (20) except that the final NADP^+ concentration was 200 μM (21). Samples were assayed in quadruplicate, and dicoumarol inhibitable-rates (which generally represented less than 5% of the total rate) were also measured. Spectrophotometric blanks contained 10 μl of DPBS with 0.5% Triton X-100. For the GSH assay, 300 μl of sample was placed in a centricon-10microconcentrator and centrifuged (5000×g×45 min) until enough ultrafiltrate could be collected. 50 μl/well of sample in quadruplicate was placed in a 96 well "half-area" plate after which 20 μl of 1 mM Ellman's reagent dissolved in DPBS was added. The yellow color (22) developed within 5 min and was scanned with a uvmax microtiter scanner (Palo Alto, Calif.) at 405 nm. Spectrophotometric blanks contained 50 μl DPBS with 0.5% Triton X-100 and 20 μl of 1 mM Ellman's reagent in DPBS. The optical densities of the specimens were calibrated to a GSH standard curve. Protein contents were determined in 3 ml cuvettes by the Bradford method (23). The protein content in the ultrafiltrates employed for GSH determinations were negligible (<0.01 mg/ml).
We confirmed that the induction of QR in microtiter wells mirrored our results in T-25 flasks by using the method of Prochaska and Santamaria (20). Medium (100 μl) containing 0.1% final concentration DMSO was added to all wells except columns designated to contain the highest concentration of drug or spectrophotometric blanks in duplicate sets of U-bottomed microtiter plates. 200 μl of media containing drug (final DMSO concentration=0.1%) was added to the empty column of wells and then diluted in 2-fold serial dilutions across. After the serial dilutions were performed, 100 μl of media containing 1×10^6 cells/ml was added to each well, and the plates were placed in a 37° C. incubator for 48 h. One set of plates was assayed as described (21) for QR activity, the other was assayed for cell number by the method for Alley et al. (24).

[3] = system: glutathione levels (GSH) in H9 cells; assay: Elevation of glutathione (GSH) levels in H9 cells; assay type: cell-based, human; conditions: for fold induction at 30 µM / fold induction at 60 µM / fold induction at 120 µM: Homo sapiens, read-out: Glutathione levels, treated to control value
Protocol: as §1

[4] = dose- and time-dependent, H9 cells

Question: Which Cmax ([1]; read-out: peak serum level) does the source give for `Cc1c(-c2cnccn2)ssc1=S` [compound 11, 4-methyl-5-(2-pyrazinyl)-1,2-dithiole-3-thione] here?
Answer: The Cmax was over 4 µM.

Question: And the peak serum level [1]?
Answer: Its peak serum level is “greater than 1 μg/ml”.

Question: What about the “inhibition of HIV-1 replication, result in words” value (HIV-1 (HTLVIIIB); H9 cells) of the same compound?
Answer: The value was “effective”.

Question: What about the “inhibitory potency less than that of AZT (HIV-1 replication)” value (HIV-1 (HTLVIIIB); H9 cells, relative to AZT (FIG. 3)) of the same compound?
Answer: Its value is “approximately 100 fold”.

Question: What about the IC50 (HIV-1 (HTLVIIIB); Human immunodeficiency virus 1, H9, read-out: IC50 HIV-1 replication (Exp 1)) of the same compound?
Answer: Its IC50 is 2000 nM.

Question: What about the IC50 (HIV-1 (HTLVIIIB); Human immunodeficiency virus 1, H9, read-out: IC50 HIV-1 replication (Exp 2)) of the same compound?
Answer: Its IC50 is 3000 nM.

Question: What about the IC50 (HIV-1 (HTLVIIIB); Human immunodeficiency virus 1, H9, read-out: IC50 HIV-1 replication as determined by IFA) of the same compound?
Answer: Its IC50 is 9700 ± 2000 nM.

Question: What about the “effect of pre-treatment of H9 cells with inducers on anti-HIV-1 activity” value (HIV-1 (HTLVIIIB); inducers 3-4 days prior to exposure to virus, listed as oltipraz) of the same compound?
Answer: Its value is “did not increase the antiviral effect; also recorded: no enhancement of the anti-HIV-1 activity”.

Question: What about the “Quinone Reductase Specific Activity” value ([2]; 24 h, 30 μM) of the same compound?
Answer: The value was 62.0 ± 2.0 nmol/min/mg.

Question: And the “Quinone Reductase Specific Activity” value ([2]; 24 h, 60 μM)?
Answer: The value was 83.5 ± 1.7 nmol/min/mg.

Question: And the “Quinone Reductase Specific Activity” value ([2]; 24 h, 120 μM)?
Answer: Its value is 109 ± 28 nmol/min/mg.

Question: What about the “Quinone Reductase Specific Activity” value ([2]; 48 h, 30 μM) of the same compound?
Answer: The value was 52.7 ± 2.9 nmol/min/mg.

Question: And the “Quinone Reductase Specific Activity” value ([2]; 48 h, 60 μM)?
Answer: Its value is 68.0 ± 2.9 nmol/min/mg.

Question: And the “Quinone Reductase Specific Activity” value ([2]; 48 h, 120 μM)?
Answer: Its value is 79.7 ± 0.28 nmol/min/mg.

Question: And the “Quinone Reductase Specific Activity” value ([2]; 72 h, 30 μM)?
Answer: Its value is 40.4 ± 4.7 nmol/min/mg.

Question: What about the “Quinone Reductase Specific Activity” value ([2]; 72 h, 60 μM) of the same compound?
Answer: The value was 47.3 ± 4.6 nmol/min/mg.

Question: And the “Quinone Reductase Specific Activity” value ([2]; 72 h, 120 μM)?
Answer: Its value is 75.0 ± 8.6 nmol/min/mg.

Question: What about the fold induction at 30 µM ([2]; H9, 24 h) of the same compound?
Answer: Its fold induction at 30 µM is 1.1.

Question: And the fold induction at 60 µM ([2]; H9, 24 h)?
Answer: The fold induction at 60 µM was 1.48.

Question: And the fold induction at 120 µM ([2]; H9, 24 h)?
Answer: Its fold induction at 120 µM is 1.93.

Question: And the fold induction at 30 µM ([2]; H9, 48 h)?
Answer: Its fold induction at 30 µM is 1.52.

Question: And the fold induction at 60 µM ([2]; H9, 48 h)?
Answer: The fold induction at 60 µM was 1.96.

Question: What about the fold induction at 120 µM ([2]; H9, 48 h) of the same compound?
Answer: Its fold induction at 120 µM is 2.28.

Question: What about the fold induction at 30 µM ([2]; H9, 72 h) of the same compound?
Answer: Its fold induction at 30 µM is 0.86.

Question: And the fold induction at 60 µM ([2]; H9, 72 h)?
Answer: The fold induction at 60 µM was 1.01.

Question: And the fold induction at 120 µM ([2]; H9, 72 h)?
Answer: Its fold induction at 120 µM is 1.6.

Question: And the “elevation of QR” value [2, 4]?
Answer: Its value is “least effective inducer of QR and GSH”.

Question: And the “Glutathione Levels” value ([3]; 24 h, 30 μM)?
Answer: The value was 62.0 ± 2.0 nmol/mg.

Question: And the “Glutathione Levels” value ([3]; 24 h, 60 μM)?
Answer: Its value is 83.5 ± 1.7 nmol/mg.

Question: And the “Glutathione Levels” value ([3]; 24 h, 120 μM)?
Answer: Its value is 109 ± 28 nmol/mg.

Question: What about the “Glutathione Levels” value ([3]; 48 h, 30 μM) of the same compound?
Answer: Its value is 52.7 ± 2.9 nmol/mg.

Question: And the “Glutathione Levels” value ([3]; 48 h, 60 μM)?
Answer: Its value is 68.0 ± 2.9 nmol/mg.

Question: What about the “Glutathione Levels” value ([3]; 48 h, 120 μM) of the same compound?
Answer: Its value is 79.7 ± 0.28 nmol/mg.

Question: What about the “Glutathione Levels” value ([3]; 72 h, 30 μM) of the same compound?
Answer: Its value is 40.4 ± 4.7 nmol/mg.

Question: What about the “Glutathione Levels” value ([3]; 72 h, 60 μM) of the same compound?
Answer: Its value is 47.3 ± 4.6 nmol/mg.

Question: And the “Glutathione Levels” value ([3]; 72 h, 120 μM)?
Answer: The value was 75.0 ± 8.6 nmol/mg.

Question: And the fold induction at 30 µM ([3]; H9, 24 h)?
Answer: The fold induction at 30 µM was 1.1.

Question: What about the fold induction at 60 µM ([3]; H9, 24 h) of the same compound?
Answer: The fold induction at 60 µM was 1.48.

Question: And the fold induction at 120 µM ([3]; H9, 24 h)?
Answer: Its fold induction at 120 µM is 1.93.

Question: And the fold induction at 30 µM ([3]; H9, 48 h)?
Answer: Its fold induction at 30 µM is 1.52.

Question: What about the fold induction at 60 µM ([3]; H9, 48 h) of the same compound?
Answer: Its fold induction at 60 µM is 1.96.

Question: And the fold induction at 120 µM ([3]; H9, 48 h)?
Answer: The fold induction at 120 µM was 2.28.

Question: And the fold induction at 30 µM ([3]; H9, 72 h)?
Answer: The fold induction at 30 µM was 0.86.

Question: And the fold induction at 60 µM ([3]; H9, 72 h)?
Answer: Its fold induction at 60 µM is 1.01.

Question: What about the fold induction at 120 µM ([3]; H9, 72 h) of the same compound?
Answer: The fold induction at 120 µM was 1.6.

Question: And the “elevation of GSH” value [3, 4]?
Answer: Its value is “able to elevate both GSH and QR levels”.
